Laboratory results taken from US8969295B2, “Identifying and modulating molecular pathways that mediate nervous system plasticity” (Massachusetts Institute of Technology, priority 2006, dated 2015).
Entries after “also recorded” stand apart in the source; their conditions may differ.

Columns and labels:
[1] = tested on: IGF1 receptor (IGF1R); experiment: Immunostaining in V1 after MD with concurrent IGF1; type: in vivo, mouse; conditions: short-term (4 days) MD + daily IP IGF1
Description: (§1) In additional experiments in which the effects of short-term (4 days from P23-27) MD were investigated, as well the effects of IGF1 infusion concurrent with MD, a total of four experimental groups were analyzed: a new group of control animals (3 samples), the ipsilateral and the contralateral cortex of mice monocularly deprived for four days (3 samples for the ipsilateral and 3 samples for the contralateral cortex), the contralateral cortex of mice that were monocularly deprived for four days and were injected IP daily with IGF1 solution (3 samples). Tissue was removed and the RNA extracted as described above, and labeled RNA was hybridized to the Affymetrix mouse genome 430.2 chip, which contains oligonucleotides that correspond to a total of 42,000 probes targeting genes and ESTs.
(§2) Mice were anesthetized and transcardially perfused with a solution of 4% paraformaldehyde. The appropriate brain hemispheres were removed and equilibrated in 30% sucrose in PBS. Coronal sections containing visual cortex were cut using a freezing microtome. Immunohistochemistry for GluR1 (1:500, Upstate), IGFBP5 (1:500, USBiological), CaMK2alpha (1:500, Sigma), PhosphoCREB (1:500, Cell Signaling), activated Stat1 (1:500, Abcam), parvalbumin (1:1000, Chemicon), calretinin (1:500, Chemicon), somatostatin (1:300, Chemicon), neuropeptideY (1:400, Chemicon), synapsin 1 (1:500, Chemicon), IGF1 (1:250, Chemicon), GAD 67 (1:400, Chemicon), IGF1R (1:500, Upstate), PI3K—catalytic subunit 110 (1:400, Upstate), phosphorylated-Akt (1:250, Cell Signaling), was carried out as described elsewhere^82,83. For each staining, analysis was repeated in parallel for control and deprived animals. Experiments were carried out at least on two animals for each group and repeated twice. The intensity of staining in sections from control and deprived animals was evaluated with ImageJ software (rsb.info.nih.gov/ij/). Counts of parvalbumin, calretinin, somatostatin and NPY-positive cells were performed as described elsewhere^29.
(§3) For IGF1 treatment, a solution containing GPE, the functional peptide of IGF1, was prepared as described^56: 300 μg of GPE was injected intra-peritoneally daily for the entire period of deprivation. This peptide is referred to as “IGF1” in the Results below.

[2] = tested on: IGFBP5; experiment: Immunostaining in V1 after MD with concurrent IGF1; type: in vivo, mouse; conditions: short-term (4 days) MD + daily IP IGF1, cortex contralateral to deprived eye
Description: as §1, §2, §3

[3] = tested on: synapsin 1; experiment: Immunostaining in V1 after MD with concurrent IGF1; type: in vivo, mouse; conditions: short-term (4 days) MD + daily IP IGF1; P<0.05
Description: as §1, §2, §3

[4] = tested on: Phosphatidylinositol 3-Kinase (PI3K); experiment: Immunostaining in V1 after MD with concurrent IGF1; type: in vivo, mouse; conditions: short-term (4 days) MD + daily IP IGF1; P<0.05
Description: as §1, §2, §3

[5] = tested on: phosphorylated-Akt; experiment: Immunostaining in V1 after MD with concurrent IGF1; type: in vivo, mouse; conditions: short-term (4 days) MD + daily IP IGF1
Description: as §1, §2, §3

[6] = tested on: visual cortex gene expression; experiment: Microarray analysis of MD+IGF1 animals versus MD animals, all genes; type: in vivo, mouse; conditions: 4 days MD + daily IP IGF1, microarray
Description: as §1
(§4) A method for the Significance Analysis of Microarrays to assess changes in gene expression was used^31, and the method was implemented in MATLAB (The Mathworks, Natick, Mass.). The method allows the comparison of the expression level of each gene under two conditions (e.g., MD vs. control; or DR vs. control). […] Correlations between replicates were calculated as correlation coefficients (c.c.) for all conditions: control (c.c.=0.99±0.002), MD 16 days (c.c.=0.9±0.05), MD 4 days contralateral (c.c.=0.99±0.001), MD 4 days ipsilateral (0.99±0.005), MD 4 days contralateral plus IGF1 (c.c.=0.99±0.004). […]

[7] = tested on: binocular portion of V1; experiment: Optical imaging of intrinsic signals in V1: ocular dominance after monocular deprivation (MD) with IGF1; type: in vivo, mouse
Description: For monocular deprivation, animals were anesthetized with avertin (0.016 ml/g) and the eyelids of one eye were sutured (at P20-22 for 7 days for imaging experiments). Before imaging, the suture was removed and the deprived eye re-opened. Only animals in which the deprivation sutures were intact and the condition of the deprived eye appeared healthy were used for the imaging session. For DR animals (aged P27-30), the procedure was the same described above, with the exception that the animals were anesthetized in darkness and not exposed to light until deeply anaesthetized; in these mice only the binocular response was evaluated and compared to that in control animals.
Mice (129/SvEv and C57B1/6) aged P26-30 were anesthetized with urethane (1.5 g/Kg) and chlorprothixene (0.2 mg), as described^84. Skin was excised and the skull exposed over V1. A custom-made attachment was used to fix the head and minimize movements. The cortex was covered with agarose solution (1.5%) and a glass cover slip. During the imaging session the animal's body temperature was kept constant with a heating blanket and the EKG monitored constantly. […]
A temporal high pass filter (135 frames) was employed to remove slow noise components, after which the temporal Fast Fourier Transform (FFT) component at the stimulus frequency ([…]) was calculated pixel by pixel from the whole set of images. […]

[8] = in vivo; cited from earlier work
[9] = tested on: PI3K; experiment: Microarray analysis of MD+IGF1 animals versus MD animals; type: in vivo, mouse; conditions: 4 days MD + daily IP IGF1, contralateral cortex; P<0.01
Description: as §1, §4

[10] = tested on: IGFBP5; experiment: as above; type: in vivo, mouse; conditions: 4 days MD + daily IP IGF1, contralateral cortex; P<0.01
Description: as §1, §4

[11] = tested on: ischemia in the CNS; conditions: intra-peritoneal administration; cited from earlier work
[12] = tested on: PKC; conditions: Nishiyama et al., 2003; cited from earlier work
[13] = tested on: cGMP; conditions: Leamey et al., 2001; cited from earlier work

IGF1: GPE, the functional peptide of IGF1 (tripeptide), referred to as IGF1 in the Results of Example 4 (Insulin-like growth factor I; UniProt P05019 49-51, looked up, fragment)
Expression of the IGF1 receptor (IGF1R), immunostaining in V1 [1]: partially restored | IGFBP5 immunostaining in V1 [2]: no change from normal levels | level of synapsin expression, immunostaining for synapsin 1 in V1 [3]: significant increase | PI3K expression, immunostaining in V1 [4]: fully restored | Expression of phosphorylated-Akt, immunostaining in V1 [5]: restored | genes significantly altered in expression in MD+IGF1 animals compared to MD animals [6]: only a small fraction of genes was significantly altered | shift of mean ocular dominance index across animals relative to control ([7]; 7 days MD + IGF1 i.p., n=3, P>0.2 vs control): prevented the shift | ocular dominance shift towards the open eye (ocular dominance distribution of pixels within the binocular zone) ([7]; 7 days MD during critical period, 300 μg GPE intra-peritoneally daily for the period of deprivation): prevented the ocular dominance shift towards the open eye; also recorded: prevents the ocular dominance shift | ability to cross the blood brain barrier [8]: able to cross the blood brain barrier | PI3K microarray expression compared to MD alone [9]: upregulated | IGFBP5 microarray expression compared to MD alone [10]: significantly downregulated | effects of ischemia in the CNS [11]: prevents the effects of ischemia in the CNS

CN(C)CCCn1cc(C2=C(c3c[nH]c4ccccc34)C(=O)NC2=O)c2ccccc21 [GF109203X]
Effective doses in slices [12]: 10 to 100 µM

O=c1onc2cnc3ccccc3n12 [ODQ]
effective dose for influencing axon growth [13]: about 10 μM
